target: T1, HDM2 (Homo sapiens, UniProt Q00987); assay: HDM2 FRET assay (inhibition of binding of FITC labeled p53-pocket peptide to HDM2); details: Table 9; read-out: FRET IC50
T1 construct: Thioredoxin (N); made in house; host or cells: E. coli strain BL21(DE3)Rosetta
In short: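 Compounds were tested in 10-point serial dilution against 0.5 nM recombinant HDM2 binding 3 nM fluorescein-labeled p53-pocket peptide. Detection used 0.25 nM terbium cryptate anti-6xHis antibody in PBS buffer containing 0.01% BSA and 0.01% Tween-20.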

T1 sequence (Q00987 17-125): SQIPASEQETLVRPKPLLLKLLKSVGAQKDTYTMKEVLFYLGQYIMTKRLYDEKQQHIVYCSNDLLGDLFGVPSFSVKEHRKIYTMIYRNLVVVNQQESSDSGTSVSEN

| Compound | IC50 [nM] |
| --- | --- |
| COCC1(N(C)c2nc3nc(-c4noc(=O)[nH]4)nc(N[C@H](C)C4CCC4)c3n2Cc2ccc(C(F)(F)F)cc2)CC1 [Example 9.89, 3-(6-{[(1R)-1-cyclobutylethyl]amino}-8-{[1-(methoxymethyl)cyclopropyl] (methyl)amino}-7-[4-(trifluoromethyl)benzyl]-7H-purin-2-yl)-1,2,4-oxadiazol-5(4H)-one] | 22.6 |
| C[C@@H](Nc1nc(-c2noc(=O)[nH]2)nc2nc(N3CCCCC3CF)n(Cc3ccc(C(F)(F)F)cc3)c12)C1CCC1 (stereo partly drawn) [Example 9.90, 3-(6-{[(1R)-1-cyclobutylethyl]amino}-8-[2-(fluoromethyl)piperidin-1-yl]-7-[4-(trifluoromethyl)benzyl]-7H-purin-2-yl)-1,2,4-oxadiazol-5(4H)-one] | 12.1 |
| CC(C)CC1CCCN1c1nc2nc(-c3noc(=O)[nH]3)nc(N[C@H](C)C3CCC3)c2n1Cc1ccc(C(F)(F)F)cc1 (stereo partly drawn) [Example 9.91, 3-(6-{[(1R)-1-cyclobutylethyl]amino}-8-[2-(2-methylpropyl)pyrrolidin-1-yl]-7-[4-(trifluoromethyl)benzyl]-7H-purin-2-yl)-1,2,4-oxadiazol-5(4H)-one] | 19.4 |
| CC(C)CC1CCN(c2nc3nc(-c4noc(=O)[nH]4)nc(N[C@H](C)C4CCC4)c3n2Cc2ccc(C(F)(F)F)cc2)C1 (stereo partly drawn) [Example 9.92, 3-(6-{[(1R)-1-cyclobutylethyl]amino}-8-[3-(2-methylpropyl)pyrrolidin-1-yl]-7-[4-(trifluoromethyl)benzyl]-7H-purin-2-yl)-1,2,4-oxadiazol-5(4H)-one] | 478 |
| C[C@@H](Nc1nc(-c2noc(=O)[nH]2)nc2nc(N(C)CC3CCOCC3)n(Cc3ccc(C(F)(F)F)cc3)c12)C1CCC1 [Example 9.93, 3-(6-{[(1R)-1-cyclobutylethyl]amino}-8-[methyl(tetrahydro-2H-pyran-4-ylmethyl)amino]-7-[4-(trifluoromethyl)benzyl]-7H-purin-2-yl)-1,2,4-oxadiazol-5(4H)-one] | 47 |
| C[C@@H](Nc1nc(-c2noc(=O)[nH]2)nc2nc(N(C)CCc3ccccc3)n(Cc3ccc(C(F)(F)F)cc3)c12)C1CCC1 [Example 9.94, 3-(6-{[(1R)-1-cyclobutylethyl]amino}-8-[methyl(2-phenylethyl)amino]-7-[4-(trifluoromethyl)benzyl]-7H-purin-2-yl)-1,2,4-oxadiazol-5(4H)-one] | 96.7 |
| CCN(CC1CCCCC1)c1nc2nc(-c3noc(=O)[nH]3)nc(N[C@H](C)C3CCC3)c2n1Cc1ccc(C(F)(F)F)cc1 [Example 9.95, 3-(6-{[(1R)-1-cyclobutylethyl]amino}-8-[(cyclohexylmethyl)(ethyl)amino]-7-[4-(trifluoromethyl)benzyl]-7H-purin-2-yl)-1,2,4-oxadiazol-5(4H)-one] | 27.2 |
| CCCN(c1nc2nc(-c3noc(=O)[nH]3)nc(N[C@H](C)C3CCC3)c2n1Cc1ccc(C(F)(F)F)cc1)C1CCCCC1 [Example 9.96, 3-(6-{[(1R)-1-cyclobutylethyl]amino}-8-[cyclohexyl(propyl)amino]-7-[4-(trifluoromethyl)benzyl]-7H-purin-2-yl)-1,2,4-oxadiazol-5(4H)-one] | 16.2 |
| CCN(CCN1CCCC1)c1nc2nc(-c3noc(=O)[nH]3)nc(N[C@H](C)C3CCC3)c2n1Cc1ccc(C(F)(F)F)cc1 [Example 9.97, 3-(6-{[(1R)-1-cyclobutylethyl]amino}-8-[ethyl(2-pyrrolidin-1-ylethyl)amino]-7-[4-(trifluoromethyl)benzyl]-7H-purin-2-yl)-1,2,4-oxadiazol-5(4H)-one] | 23.9 |
| C[C@@H](Nc1nc(-c2noc(=O)[nH]2)nc2nc(N(C)CC3(C)CCN(C)C3)n(Cc3ccc(C(F)(F)F)cc3)c12)C1CCC1 (stereo partly drawn) [Example 9.98, 3-(6-{[(1R)-1-cyclobutylethyl]amino}-8-{[(1,3-dimethylpyrrolidin-3-yl)methyl] (methyl)amino}-7-[4-(trifluoromethyl)benzyl]-7H-purin-2-yl)-1,2,4-oxadiazol-5(4H)-one] | 71 |
| C[C@@H](Nc1nc(-c2noc(=O)[nH]2)nc2nc(N(C)CC3CCCN(C)C3)n(Cc3ccc(C(F)(F)F)cc3)c12)C1CCC1 (some centres unmarked) [Example 9.99] | 45 |

Reference: patent EP2951180B1, “2,6,7,8 SUBSTITUTED PURINES AS HDM2 INHIBITORS” (Merck Sharp & Dohme Corp., priority 2013, dated 2014)
